Source: patent US20260053811A1, “METHODS OF TREATING HYPERTENSION IN OBESE SUBJECTS” (Mineralys Therapeutics, Inc., priority 2022, published 2026)
Marks after values point to notes of the source that are not given here.

System: hypertensive subjects
Experiment: Seated automated office blood pressure (AOBP) in randomized, placebo-controlled, dose-ranging study
Format: in vivo, human
Set-up: Difference from placebo in change in blood pressure: unit not given here
Experimental: A randomized, double-blinded, placebo-controlled, dose-ranging, multicenter study was conducted to evaluate the effect of orally administered Compound A HBr on blood pressure for the treatment of hypertension in male and female subjects ≥18 years of age.
The study consists of two parts. For enrollment into Part 1 of the study, a subject's value of plasma renin activity (PRA) must be ≤1 ng/mL/h based on morning measurement. If the value of PRA >1 ng/mL/h based on morning measurement, then subjects may be eligible to enter Part 2 of the study.
For Part 1, 163 enrolled subjects ≥18 years of age were randomized into 6 equal treatment groups (1:1:1:1:1:1) to 12.5 mg BID, 25 mg BID, 12.5 mg QD, 50 mg QD, 100 mg QD, or placebo. After a review of interim clinical data, the 2 lowest dose levels (12.5 mg QD and 12.5 mg BID) were stopped for future randomization due to a lack of consistent meaningful reduction of blood pressure, but the patients randomized to that point remained in the study through completion. Thus, after the review of interim clinical data, subjects were randomized into 4 equal treatment groups (1:1:1:1) to 25 mg BID, 50 mg QD, 100 mg QD, or placebo.
For Part 2, 36 enrolled subjects ≥18 years of age were randomized (5:1) to either 100 mg QD Compound A HBr or placebo such that the Compound A HBr treatment group consisted of approximately 30 subjects and the placebo treatment group will consist of approximately 6 subjects.
Subjects orally administered the assigned study drug (Compound A HBr or placebo) according to the assigned dosing regimen for 8 weeks beginning on Study Day 1. All subjects in Part 1 (regardless of dosing group) received BID dosing to preserve the integrity of the blind; active drug is administered as the morning dose for all QD dose groups. Subjects returned to the research facility or were seen by the clinical investigator or approved home health care professional at the end of Study Weeks 1, 2, 3, 4, 5, 6, 7, and 8 (±2 days) for protocol-defined efficacy and safety assessments and procedures, assessment of adverse events (AEs), and confirmation of compliance with study drug usage. Subjects also completed a telephone visit and blood pressure (BP) check at home approximately 3 days post last dose of study drug. Subjects attended up to 14 full clinic visits, including a pre-Screening visit, a Screening/start of Placebo Run-in visit, a second visit during Placebo Run-in, a clinic visit to initiate the ABPM procedure, a Randomization visit, 8 weekly visits during double-blind treatment, and an end-of-study visit scheduled 4 weeks after the last study treatment for final efficacy and safety assessments.
An automated oscillometric sphygmomanometer device was used to measure the subjects' systolic and diastolic blood pressure in office after approximately 5 minutes of rest in the seated position.
The primary endpoint is the change in office-measured (mean of last 2 of 5 unattended measurements using an automated oscillometric sphygmomanometer device after approximately 5 minutes of rest in the seated position) systolic blood pressure (SBP) from baseline to the end of Study Week 8.
Secondary endpoints of this study were: • (a) Change in 24-hour ambulatory blood pressure monitoring (ABPM) parameters (systolic and diastolic) from baseline to the end of Study Week 7. • (b) Change in office-measured SBP from baseline to the end of Study Weeks 1, 2, 3, 4, 5, 6, and 7. • (c) Change in office-measured diastolic blood pressure (DBP) from baseline to the end of Study Weeks 1, 2, 3, 4, 5, 6, 7, and 8. • (d) Proportion of subjects who achieve office-measured BP of ≤130/80 mm Hg by the end of Study Week 8.

CC(=O)N[C@H]1CC[C@H](NC(=O)CN2CCN(c3nncc(-c4ccc(C)cc4)n3)CC2)CC1 [Compound A HBr]
Difference from placebo in change in blood pressure (25 mg BID, Thiazide Yes): −8.3
Seated AOBP DBP change from baseline (CFB), Mean (SD) (25 mg BID, Week 1, Part 1, FAS): −2.22 (5.68) mmHg
Seated AOBP DBP, Mean (SD) (25 mg BID, Week 1, Part 1, FAS): 76.70 (9.28) mmHg
Seated AOBP SBP change from baseline (CFB), Mean (SD) (25 mg BID, Week 1, Part 1, FAS): −6.57 (10.78) mmHg
Seated AOBP SBP, Mean (SD) (25 mg BID, Week 1, Part 1, FAS): 134.37 (14.17) mmHg
Seated AOBP DBP change from baseline (CFB), Mean (SD) (25 mg BID, Week 2, Part 1, FAS): −2.42 (8.03) mmHg
Seated AOBP DBP, Mean (SD) (25 mg BID, Week 2, Part 1, FAS): 76.50 (10.74) mmHg
Seated AOBP SBP change from baseline (CFB), Mean (SD) (25 mg BID, Week 2, Part 1, FAS): −6.37 (13.43) mmHg
Seated AOBP SBP, Mean (SD) (25 mg BID, Week 2, Part 1, FAS): 134.57 (17.75) mmHg
Seated AOBP DBP change from baseline (CFB), Mean (SD) (25 mg BID, Week 3, Part 1, FAS): −0.55 (14.99) mmHg
Seated AOBP DBP, Mean (SD) (25 mg BID, Week 3, Part 1, FAS): 78.72 (15.35) mmHg
Seated AOBP SBP change from baseline (CFB), Mean (SD) (25 mg BID, Week 3, Part 1, FAS): −5.34 (18.35) mmHg
Seated AOBP SBP, Mean (SD) (25 mg BID, Week 3, Part 1, FAS): 136.34 (19.78) mmHg
LSM Δ with Placebo, seated AOBP DBP (MMRM) (25 mg BID, Week 4, Part 1, FAS): −5.94 mmHg
Modelled (MMRM) LSM (SEM) change from baseline, seated AOBP DBP (25 mg BID, Week 4, Part 1, FAS): −6.47 (1.41) mmHg
Seated AOBP DBP change from baseline (CFB), Mean (SD) (25 mg BID, Week 4, Part 1, FAS): −5.80 (7.01) mmHg
Seated AOBP DBP, Mean (SD) (25 mg BID, Week 4, Part 1, FAS): 73.26 (7.79) mmHg
Seated AOBP SBP change from baseline (CFB), Mean (SD) (25 mg BID, Week 4, Part 1, FAS): −9.63 (12.34) mmHg
Seated AOBP SBP, Mean (SD) (25 mg BID, Week 4, Part 1, FAS): 131.85 (13.59) mmHg
Seated AOBP DBP change from baseline (CFB), Mean (SD) (25 mg BID, Week 5, Part 1, FAS): −2.82 (8.82) mmHg
Seated AOBP DBP, Mean (SD) (25 mg BID, Week 5, Part 1, FAS): 76.29 (9.91) mmHg
Seated AOBP SBP change from baseline (CFB), Mean (SD) (25 mg BID, Week 5, Part 1, FAS): −9.16 (15.72) mmHg
Seated AOBP SBP, Mean (SD) (25 mg BID, Week 5, Part 1, FAS): 132.25 (16.30) mmHg
Seated AOBP DBP change from baseline (CFB), Mean (SD) (25 mg BID, Week 6, Part 1, FAS): −3.07 (8.82) mmHg
Seated AOBP DBP, Mean (SD) (25 mg BID, Week 6, Part 1, FAS): 76.04 (10.57) mmHg
Seated AOBP SBP change from baseline (CFB), Mean (SD) (25 mg BID, Week 6, Part 1, FAS): −7.09 (11.66) mmHg
Seated AOBP SBP, Mean (SD) (25 mg BID, Week 6, Part 1, FAS): 134.32 (13.96) mmHg
Seated AOBP DBP change from baseline (CFB), Mean (SD) (25 mg BID, Week 7, Part 1, FAS): −4.87 (8.84) mmHg
Seated AOBP DBP, Mean (SD) (25 mg BID, Week 7, Part 1, FAS): 73.89 (10.76) mmHg
Seated AOBP SBP change from baseline (CFB), Mean (SD) (25 mg BID, Week 7, Part 1, FAS): −11.00 (13.60) mmHg
Seated AOBP SBP, Mean (SD) (25 mg BID, Week 7, Part 1, FAS): 130.74 (15.42) mmHg
LSM Δ from Placebo, change from baseline in seated AOBP SBP (MMRM) (25 mg BID, Week 8, Part 1, FAS): −6.97 mmHg
LSM Δ with Placebo, seated AOBP DBP (MMRM) (25 mg BID, Week 8, Part 1, FAS): −2.49 mmHg
Modelled (MMRM) LSM (SEM) change from baseline, seated AOBP DBP (25 mg BID, Week 8, Part 1, FAS): −4.12 (1.68) mmHg
Modelled (MMRM) LSM (SEM) change from baseline, seated AOBP SBP (25 mg BID, Week 8, Part 1, FAS): −11.07 (2.65) mmHg
Seated AOBP DBP change from baseline (CFB), Mean (SD) (25 mg BID, Week 8, Part 1, FAS): −3.68 (11.71) mmHg
Seated AOBP DBP, Mean (SD) (25 mg BID, Week 8, Part 1, FAS): 75.43 (13.06) mmHg
Seated AOBP SBP change from baseline (CFB), Mean (SD) (25 mg BID, Week 8, Part 1, FAS): −10.13 (14.02) mmHg
Seated AOBP SBP, Mean (SD) (25 mg BID, Week 8, Part 1, FAS): 131.29 (16.59) mmHg
Subjects with seated AOBP SBP/DBP ≤130/80 mmHg: No (25 mg BID, Week 8, Part 1, FAS): 17 (56.7) n (%)
Subjects with seated AOBP SBP/DBP ≤130/80 mmHg: Yes (25 mg BID, Week 8, Part 1, FAS): 13 (43.3) n (%)
Difference from placebo in change in blood pressure (50 mg QD, BMI 25-30): 2.0
Difference from placebo in change in blood pressure (50 mg QD, BMI >30): −16.6*
Mean placebo-adjusted reduction in AOBP SBP (50 mg QD, Part 1, Week 8): 9.58 mmHg
Placebo-adjusted reduction in AOBP DBP, thiazide diuretic use at baseline (50 mg QD, Part 1, Week 8): −7.7 mmHg
Placebo-adjusted reduction in AOBP SBP from baseline, by baseline AOBP SBP tertile (50 mg QD, Part 1, Week 8): −19.9 mmHg
